“And” between values parts separate entries of the source, which are not always exact repeats. Identical values can stand only once. Like-named read-outs stand apart in the source and are kept apart here.
Columns and labels:
Human recombinant MAOA = Human recombinant MAOA (Homo sapiens (Human), UniProt P21397); assay: MAOA in vitro activity (MAO-Glo); format: biochemical
human recombinant MAOB = human recombinant MAOB (Homo sapiens (Human), UniProt P27338); assay: MAOB in vitro activity (MAO-Glo); format: biochemical
[1] = tested on: CD86 expression in leukemia cell line MV4-11; assay: CD86 gene expression activation test (quantitative real-time PCR); format: cell-based, human; details: CD86 activation fold, 24 h
Protocol: CD86 Gene Expression Activation Test: Experimental Principle:
Quantitative Real-time PCR is a method for measuring the total amount of the product after each polymerase chain reaction (PCR) cycle by using fluorescent chemicals in a DNA amplification reaction. Quantitative analysis of a specific DNA sequence in a sample to be tested was conducted by internal reference method or external reference method. There is a linear relationship between the Ct value of the template and the initial copy number of the template during the exponential phase of PCR amplification, which serves as a basis for quantification.
• 1. 350 w/mL MV4-11 cells were accurately counted in a 12-well plate at 900 μL per well. • 2. […] The sample was transferred to a 1.5 mL EP tube, centrifuged at 2000 rpm for 3 min, and the supernatant was removed. […] of trizol was added for lysis and allowed to stand for 3 min. • 4. […] The supernatant was removed, and the EP tube was air-dried in a fume hood. 20-30 μL of RNase inactivated deionized water was added and mixed to measure the RNA concentration. • 8. […] 100 μL of deionized water was added to the EP tube and mixed. • 10. […]

leukemia cells MV4-11 = assay: Inhibitory activity on growth by MTS method; format: cell-based; details: Homo sapiens
Protocol: 2. Test of Inhibitory Activities of Compound on Growth by MTS Method Experimental Principle:
MTS assay detects the inhibitory effect of the tested compound to the growth of leukemia cells MV (4:11). The principle is that succinate dehydrogenase in mitochondria in living cells can reduce exogenous thiazole blue to insoluble blue crystal Formazan.
• 1. MV4-11 cells in logarithmic growth phase were accurately counted at 16000 cells/mL, and the diluted cell solution was added to 96-well plates at 90 μL per well. • 2. Fresh medium was taken and sequentially added to a 96-well plate with cell fluid at 90 μL per well. • 3. […] 2 μL of the diluted compound was respectively added to a 96-well plate containing 98 μL of blank medium, and for DMSO group, 98 μL of blank medium was added into 2 μL of DMSO, and mixed for further use. • 5. The compound mixed with the medium was separately added to a 96-well plate in which cells were plated, in triplicate, 20 μL per well, and were mixed. The blank group was added with 200 μL of IMDM medium, and the DMSO group was added with 180 μL of the cell-containing medium in DMSO diluted with the medium. • 6. […]

[2] = tested on: human acute myeloid leukemia MV4-11 subcutaneous transplantation tumor; assay: Growth of subcutaneous transplantation tumor in nude mice; format: in vivo, Balb/c nude mice; details: 10 mg/kg qd p.o., 21 days
Source text: Example 3 Evaluation of Chronic Efficacy at the Animal Level:
Inhibitory Effect of LSD1 Inhibitor on the Growth of Subcutaneous Transplantation Tumor in Nude Mice of Human Acute Myeloid Leukemia MV4-11 […]
Animals: Balb/c nude mice, female, weighing 17-20 g, were purchased from Beijing Weitong Lihua Experimental Animal Technology Co., Ltd., and the number of animals per group was 5.
Cell line: MV4-11 cell line was used to inoculate at the right axilla of the nude mice, and the inoculation amount was 5×10^6/animal. The experiment can start after the transplanted tumor was formed.
For female nude mice weighing 20±3 g, MV4-11 cells were inoculated into the right axilla of nude mice at a inoculation amount of 5×10^6/mouse. After tumor formation, the diameter of the transplanted tumor was measured with a vernier caliper. And after the tumor has grown into 100-300 mm^3, the animals were divided into model control group and drug-administered group according to body weight and tumor volume, with 5 mouse in each group. The model control group was given an equal amount of blank solvent. Oral gavage was used daily after grouping for 21 days.
Note: Wc: tumor weight of control group, WT: tumor weight of treatment group.
Data processing: Data were expressed as mean±standard deviation, and statistical methods were T-TEST two-tailed analysis for significant analysis.

Human recombinant LSD1 = Human recombinant LSD1 (Homo sapiens (Human), UniProt O60341)
Source text: LSD1 In Vitro Activity Assay
Instrument: microplate reader Envision™ (PerkinElmer, USA).

in vivo = details: mouse

Sequence of human recombinant MAOB (P27338 whole entry): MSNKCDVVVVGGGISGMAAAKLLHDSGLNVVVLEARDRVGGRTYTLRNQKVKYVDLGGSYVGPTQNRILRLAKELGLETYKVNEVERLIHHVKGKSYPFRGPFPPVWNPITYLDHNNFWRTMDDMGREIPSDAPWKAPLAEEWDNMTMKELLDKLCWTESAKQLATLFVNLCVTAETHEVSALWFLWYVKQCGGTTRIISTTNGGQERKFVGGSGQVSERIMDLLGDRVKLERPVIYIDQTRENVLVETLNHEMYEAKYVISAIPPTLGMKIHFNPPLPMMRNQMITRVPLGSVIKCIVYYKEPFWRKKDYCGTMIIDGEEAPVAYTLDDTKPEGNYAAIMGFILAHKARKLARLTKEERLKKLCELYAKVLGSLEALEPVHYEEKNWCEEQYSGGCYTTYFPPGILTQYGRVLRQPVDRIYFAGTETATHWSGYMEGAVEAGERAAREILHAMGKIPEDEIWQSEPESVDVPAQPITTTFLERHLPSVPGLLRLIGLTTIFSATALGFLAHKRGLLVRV
Sequence of Human recombinant MAOA (P21397 whole entry): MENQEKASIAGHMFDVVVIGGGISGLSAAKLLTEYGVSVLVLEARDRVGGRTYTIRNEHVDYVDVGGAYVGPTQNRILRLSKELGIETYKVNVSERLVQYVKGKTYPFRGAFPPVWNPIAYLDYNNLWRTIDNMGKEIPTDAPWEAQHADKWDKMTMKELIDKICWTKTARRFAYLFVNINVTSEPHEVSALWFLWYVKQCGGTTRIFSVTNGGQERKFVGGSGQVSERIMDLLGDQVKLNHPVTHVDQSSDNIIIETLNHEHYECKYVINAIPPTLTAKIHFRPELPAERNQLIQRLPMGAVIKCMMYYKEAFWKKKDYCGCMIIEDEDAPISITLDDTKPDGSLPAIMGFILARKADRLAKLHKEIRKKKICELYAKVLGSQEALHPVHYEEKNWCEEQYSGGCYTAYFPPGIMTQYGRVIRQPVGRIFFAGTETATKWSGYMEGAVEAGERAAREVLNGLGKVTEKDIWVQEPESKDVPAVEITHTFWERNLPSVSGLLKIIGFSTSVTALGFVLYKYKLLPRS

SMILES: O=C(O)c1ccc(CN2CCC(CN[C@@H]3C[C@H]3c3ccccc3)CC2)cc1 [GSK-2879552]
- IC50 (Human recombinant MAOA): > 100 µM
- IC50 (human recombinant MAOB): > 100 µM
- Activation ratio (10 nM) ([1]; MV4-11, 10 nM): 1.79 ± 0.37
- Activation ratio (100 nM) ([1]; MV4-11, 100 nM): 9.76 ± 2.23
- IC50 (leukemia cells MV4-11; 72 h, MV4-11, 3 days, read-out: MTS 3 D): > 20000 nM
- IC50 (leukemia cells MV4-11; 240 h, MV4-11, 10 days, read-out: MTS 10 D): 1030 ± 360 nM
- Tumor inhibition rate (%) [2]: 51.96%
- Tumor weight (g) mean ± SD [2]: 0.55 ± 0.55 g
- Tumor weight (g), individual animals 1-5 [2]: 0.22 g and 1.19 g and 0.00 g and 1.25 g and 0.10 g
- IC50 (Human recombinant LSD1): 1220 ± 327 nM
- AUC(0-inf) (in vivo; iv): 4420 ng·h/mL
- AUC(0-t) (in vivo; iv): 4410 ng·h/mL
- Cmax (in vivo; iv): 7740 ng/mL
- MRT inf (in vivo; iv): 0.96 h
- Tmax (in vivo; iv): 0.083 h
- Vd (in vivo; iv): 2.18 L/kg
- clearance (in vivo; iv): 37.7 mL/min/kg
- half-life (in vivo; iv): 4.36 h
- AUC(0-inf) (in vivo; po): 5360 ng·h/mL
- AUC(0-t) (in vivo; po): 5350 ng·h/mL
- Cmax (in vivo; po): 9180 ng/mL
- MRT inf (in vivo; po): 1.18 h
- Tmax (in vivo; po): 0.167 h
- bioavailability (in vivo; po): 60.7%
- half-life (in vivo; po): 4.24 h

From US10836743B2, “Fluorinated cyclopropylamine compound, preparation method therefor, pharmaceutical composition thereof, and uses thereof” (SHANGHAI INSTITUTE OF MATERIA MEDICA, CHINESE ACADEMY OF …, priority 2016, dated 2020)
